Series [1] relates to SMN2 minigene (full length SMN2 minigene mRNA containing SMN2 exon 7). The experiment in a line: SMN2 minigene mRNA splicing RT-qPCR assay in cultured cells. The format is cell-based, human. To be noted: Homo sapiens, HEK293-H, read-out: EC1.5x for production of full length SMN2 mRNA. In a few lines:
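Read-out: full-length (exon 7-included) SMN2 minigene mRNA by multiplex RT-qPCR with GAPDH, efficiency-corrected (1+E)^−Ct, GAPDH-normalized and divided by vehicle. Stably transfected HEK293H cells, 24 h compound exposure, duplicates per concentration. Value is EC1.5x, reported as star ranges.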

The subject of the next series is Smn protein. Nature of the series: Smn protein assay in cultured cells (SMN HTRF). In kind it is cell-based, human. To be noted: 48 hours; for maximum fold (Fold) increase of Smn protein: SMA patient fibroblast cells, 7-point concentration data, fold increase relative to vehicle control (SMN HTRF); for EC1.5x (concentration giving 1.5-fold Smn protein increase): SMA Type 1 patient fibroblast cells (GM03813), 7-point concentration curve, SMN HTRF, concentration producing 1.5 times Smn protein vs DMSO vehicle control, read-out: EC1.5x for Smn protein expression. In outline: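 Lysates in RIPA with protease inhibitors are incubated overnight at room temperature with HTRF anti-SMN antibodies. EC1.5x is derived from fold increase in ΔF over vehicle.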

Setting [2] is: HEK293H cells stably transfected with SMN2-A minigene, 24 hours, 7-point concentration curve, 1.5-fold relative to vehicle-treated cells.

Each structure is given as a SMILES string. Read-outs that look alike come from different tables or passages of the source.

Compound `C[C@@H]1CN(c2ccc3cc(-c4cc5ccccc5s4)c(=O)oc3c2)CCN1` [Compound 409, 3-(1-benzothiophen-2-yl)-7-[(3R)-3-methylpiperazin-1-yl]-2H-chromen-2-one] registered a melting point of 264 to 266 °C. Besides, the EC (1.5-fold) in series [1] (setting [2]) is 1 to 3 µM. For the same compound, in the series with Smn protein, the “maximum fold (Fold) increase of Smn protein” value (shortened to “maximum fold (Fold) increase”) is recorded as “* (maximum fold increase of ≤1.2)”.

For `COc1ccn2cc(-c3cc4ccc(N5CCCN(C)CC5)cc4oc3=O)nc2c1` [Compound 436, 3-(7-methoxyimidazo[1,2-a]pyridin-2-yl)-7-(4-methyl-1,4-diazepan-1-yl)-2H-chromen-2-one], the melting point is 198 to 207 °C. Besides, the EC (1.5-fold) in series [1] (setting [2]) lay in the range of 3 to 30 µM. Further, the “maximum fold (Fold) increase” value in the series with Smn protein was “* (maximum fold increase of ≤1.2)”.

For the compound `Cc1csc2nc(-c3cc4ccc(N5CCNCC5)cc4oc3=O)cn12` [Compound 98, 3-(3-methylimidazo[2,1-b][1,3]thiazol-6-yl)-7-(piperazin-1-yl)-2H-chromen-2-one], the melting point is more than 300 °C. In addition, in series [1] (setting [2]), the EC (1.5-fold) lay in the range of 1 to 3 µM. Besides, in the series with Smn protein, the EC1.5x (concentration giving 1.5-fold Smn protein increase) was 1000 to 3000 nM; the “maximum fold (Fold) increase” value was “*** (fold increase between >1.35 and ≤1.5)”.

In the case of `CCN1CCCN(c2ccc3cc(-c4cc5c(C)nc(C)cn5c4)c(=O)oc3c2)CC1` [Compound 671, 3-(1,3-dimethylpyrrolo[1,2-a]pyrazin-7-yl)-7-(4-ethyl-1,4-diazepan-1-yl)-2H-chromen-2-one], the melting point was 166 to 169 °C. Moreover, in series [1] (setting [2]), the EC (1.5-fold) was less than 0.1 µM. Moreover, in the series with Smn protein, the EC1.5x (concentration giving 1.5-fold Smn protein increase) was less than 300 nM and the “maximum fold (Fold) increase” value was “***** (fold increase >1.65)”.

In the case of `C[C@@H]1CN(c2ccc3cc(-c4cn5cc(Cl)cnc5n4)c(=O)oc3c2)CCN1` [Compound 350, 3-(6-chloroimidazo[1,2-a]pyrimidin-2-yl)-7-[(3R)-3-methylpiperazin-1-yl]-2H-chromen-2-one], the melting point was 255 to 259 °C. For the same compound, the EC (1.5-fold) in series [1] (setting [2]) lay in the range of 1 to 3 µM. Moreover, the “maximum fold (Fold) increase” value in the series on Smn protein is on record as “* (maximum fold increase of ≤1.2)”.

Consider `COc1ccc(-c2cc3ccc(N4CCN[C@@H](C)C4)cc3oc2=O)c(OC)c1` [Compound 467, 3-(2,4-dimethoxyphenyl)-7-[(3S)-3-methylpiperazin-1-yl]-2H-chromen-2-one], for which the melting point was in the range of 103 to 105 °C. Also, in series [1] (setting [2]), the EC (1.5-fold) was in the range of 3 to 30 µM. In the series on Smn protein, the “maximum fold (Fold) increase” value is “* (maximum fold increase of ≤1.2)”.

The compound `Cc1cn2cc(-c3cc4ccc(N5CCN6CCC[C@H]6C5)cc4oc3=O)ccc2n1` [Cpd 651, 7-[(8aS)-hexahydropyrrolo[1,2-a]pyrazin-2(1H)-yl]-3-(2-methylimidazo[1,2-a]pyridin-6-yl)-2H-chromen-2-one] registered a melting point of 231 to 233 °C. Moreover, in series [1] (setting [2]), the EC (1.5-fold) is less than 0.1 µM. Besides, in the series on Smn protein, the EC1.5x (concentration giving 1.5-fold Smn protein increase) was less than 300 nM; the “maximum fold (Fold) increase” value was “*** (fold increase between >1.35 and ≤1.5)”.

`Cc1cccc(Nc2cc3ccc(N4CCNCC4)cc3oc2=O)n1` [Compound 64, 3-[(6-methylpyridin-2-yl)amino]-7-(piperazin-1-yl)-2H-chromen-2-one] returned a melting point of 135 to 137 °C. The EC (1.5-fold) in series [1] (setting [2]) lay within 1 to 3 µM. In addition, in the series with Smn protein, the “maximum fold (Fold) increase” value was “* (maximum fold increase of ≤1.2)”.

In turn, `Cc1cn2cc(-c3cc4ccc(N5CCN(C)CC5)cc4oc3=O)ccc2n1` [Compound 678, 3-(2-methylimidazo[1,2-a]pyridin-6-yl)-7-(4-methylpiperazin-1-yl)-2H-chromen-2-one] returned a melting point of 235 to 238 °C. Moreover, in series [1] (setting [2]), the EC (1.5-fold) was less than 0.1 µM. In the series with Smn protein, the EC1.5x (concentration giving 1.5-fold Smn protein increase) is less than 300 nM and the “maximum fold (Fold) increase” value was “***** (fold increase >1.65)”.

`Cc1cn2cc(-c3cc4ccc(N5CCCN(C)CC5)cc4oc3=O)nc2c(C)n1` [Compound 519, 3-(6,8-dimethylimidazo[1,2-a]pyrazin-2-yl)-7-(4-methyl-1,4-diazepan-1-yl)-2H-chromen-2-one] gave a melting point of 253 to 255 °C. The EC (1.5-fold) in series [1] (setting [2]) is less than 0.1 µM. In the series on Smn protein, the EC1.5x (concentration giving 1.5-fold Smn protein increase) is less than 300 nM and the “maximum fold (Fold) increase” value is “***** (fold increase >1.65)”.

As for `COc1ccn2cc(-c3cc4ccc(N5CCN(C)CC5)cc4oc3=O)nc2c1` [Compound 435, 3-(7-methoxyimidazo[1,2-a]pyridin-2-yl)-7-(4-methylpiperazin-1-yl)-2H-chromen-2-one], the melting point was 251 to 259 °C. In series [1] (setting [2]), the EC (1.5-fold) is 1 to 3 µM. The “maximum fold (Fold) increase” value in the series with Smn protein is reported as “* (maximum fold increase of ≤1.2)”.

In turn, `O=c1oc2cc(CN3CCC(O)CC3)ccc2cc1-c1cn2ccsc2n1` [Compound 346, 7-[(4-hydroxypiperidin-1-yl)methyl]-3-(imidazo[2,1-b][1,3]thiazol-6-yl)-2H-chromen-2-one] displayed a melting point of 248 to 252 °C. For the same compound, the EC (1.5-fold) in series [1] (setting [2]) lay in the range of 3 to 30 µM. In the series on Smn protein, the “maximum fold (Fold) increase” value was “** (fold increase between >1.2 and ≤1.35)”.

`Cc1ccc2nc(-c3cc4ccc(N5C[C@@H](C)N[C@@H](C)C5)cc4oc3=O)cn2n1` [Cpd 617, 7-[(3R,5S)-3,5-dimethylpiperazin-1-yl]-3-(6-methylimidazo[1,2-b]pyridazin-2-yl)-2H-chromen-2-one] showed a melting point of 225 to 227 °C. Besides, the EC (1.5-fold) in series [1] (setting [2]) is less than 0.1 µM. The “maximum fold (Fold) increase” value with Smn protein was “*** (fold increase between >1.35 and ≤1.5)”.

Regarding `C[C@@H]1CN(c2ccc3cc(-c4cccs4)c(=O)oc3c2)C[C@H](C)N1` [Compound 364, 7-[(3R,5S)-3,5-dimethylpiperazin-1-yl]-3-(thiophen-2-yl)-2H-chromen-2-one], the melting point fell in the range of 150 to 152 °C. The EC (1.5-fold) in series [1] (24 h) lay in the range of 1 to 3 µM. The “maximum fold (Fold) increase” value in the series on Smn protein is “* (maximum fold increase of ≤1.2)”.

Compound `C[C@@H]1CN(c2ccc3cc(-c4cn5ccc(C(F)(F)F)cc5n4)c(=O)oc3c2)CCN1` [Compound 267, 7-[(3R)-3-methylpiperazin-1-yl]-3-[7-(trifluoromethyl)imidazo[1,2-a]pyridin-2-yl]-2H-chromen-2-one] displayed a melting point of 252 to 260 °C. The EC (1.5-fold) in series [1] (setting [2]) was 1 to 3 µM. Further, in the series on Smn protein, the “maximum fold (Fold) increase” value is listed as “* (maximum fold increase of ≤1.2)”.

`Cc1ccn2cc(-c3cc4ccc(N5CCCNCC5)cc4oc3=O)nc2n1` [Compound 230, 7-(1,4-diazepan-1-yl)-3-(7-methylimidazo[1,2-a]pyrimidin-2-yl)-2H-chromen-2-one] had a melting point of 286 to 288 °C. Also, in series [1] (setting [2]), the EC (1.5-fold) fell in the range of 0.3 to 1 µM. For the same compound, the “maximum fold (Fold) increase” value in the series with Smn protein is “*** (fold increase between >1.35 and ≤1.5)”.

Compound `Cc1cn2cc(-c3cc4ccc(CCCNC5CCOC5)cc4oc3=O)nc2c(C)n1` (stereo not shown) [Compound 939, 3-(6,8-dimethylimidazo[1,2-a]pyrazin-2-yl)-7-[3-(tetrahydrofuran-3-ylamino)propyl]-2H-chromen-2-one] returned a melting point of 177 to 180 °C. Also, the EC (1.5-fold) in series [1] (setting [2]) was less than 0.1 µM. In the series on Smn protein, the EC1.5x (concentration giving 1.5-fold Smn protein increase) was less than 300 nM and the “maximum fold (Fold) increase” value is reported as “***** (fold increase >1.65)”.

As for `CN1CCN(c2ccc3cc(-c4nc5c(Cl)cccc5s4)c(=O)oc3c2)CC1` [Compound 17, 3-(4-chloro-1,3-benzothiazol-2-yl)-7-(4-methylpiperazin-1-yl)-2H-chromen-2-one], the melting point was in the range of 256 to 260 °C. Besides, in series [1] (setting [2]), the EC (1.5-fold) is 0.3 to 1 µM. The “maximum fold (Fold) increase” value with Smn protein is “** (fold increase between >1.2 and ≤1.35)”.

`Cc1nc(Cl)cn2cc(-c3cc4ccc(N5CCN[C@@H](C)C5)cc4oc3=O)nc12` [Compound 713, 3-(6-chloro-8-methylimidazo[1,2-a]pyrazin-2-yl)-7-[(3S)-3-methylpiperazin-1-yl]-2H-chromen-2-one] came in with a melting point of 235 to 238 °C. Besides, the EC (1.5-fold) in series [1] (setting [2]) is less than 0.1 µM. For the same compound, in the series on Smn protein, the EC1.5x (concentration giving 1.5-fold Smn protein increase) was less than 300 nM; the “maximum fold (Fold) increase” value is “*** (fold increase between >1.35 and ≤1.5)”.

Compound `O=c1oc2cc(N3CCNCC3)ccc2cc1-c1nc2cncnc2[nH]1` [Compound 314, 7-(piperazin-1-yl)-3-(9H-purin-8-yl)-2H-chromen-2-one] returned a melting point of 291 to 297 °C. In series [1] (setting [2]), the EC (1.5-fold) lay within 1 to 3 µM. In the series with Smn protein, the “maximum fold (Fold) increase” value is recorded as “* (maximum fold increase of ≤1.2)”.

Turning to `CN1CCN(c2cc(F)c3cc(-c4nc5ccccc5[nH]4)c(=O)oc3c2)CC1` [Compound 370, 3-(1H-benzimidazol-2-yl)-5-fluoro-7-(4-methylpiperazin-1-yl)-2H-chromen-2-one], the melting point was 281 to 284 °C. In addition, the EC (1.5-fold) in series [1] (setting [2]) lay in the range of 0.3 to 1 µM. Besides, the “maximum fold (Fold) increase” value in the series on Smn protein was “* (maximum fold increase of ≤1.2)”.

`COc1ccc(-c2cc3c(F)cc(N4CCN[C@@H](C)C4)cc3oc2=O)cc1OC` [Compound 464, 3-(3,4-dimethoxyphenyl)-5-fluoro-7-[(3S)-3-methylpiperazin-1-yl]-2H-chromen-2-one] displayed a melting point of 118 to 120 °C. For the same compound, the EC (1.5-fold) in series [1] (setting [2]) is 0.1 to 0.3 µM. Besides, the “maximum fold (Fold) increase” value in the series with Smn protein is “*** (fold increase between >1.35 and ≤1.5)”.

What is called melting point is the temperature of the solid-liquid transition.

Values taken from patent publication USRE47689E1, “Compounds for treating spinal muscular atrophy” (PTC Therapeutics, Inc., priority 2011, dated 2019).
